According to PMC8274062, “Promising Non-cytotoxic Monosubstituted Chalcones to Target Monoamine Oxidase-B” (ACS Medicinal Chemistry Letters, 2021):
Where “and” joins values, the source holds several entries; their conditions need not be identical. Identical values can stand only once.

How the values were obtained:
[1] = test system: A2780 (human ovarian carcinoma cells); assay: Cell growth assay (trypan blue), A2780; format: cell-based; conditions: A2780, 72 h of incubation
[2] = test system: HT-29 (human colorectal adenocarcinoma); assay: Cell growth assay (trypan blue), HT-29; format: cell-based; conditions: HT-29, 72 h of incubation
human recombinant MAO-A = target: T1, human recombinant MAO-A (Homo sapiens, UniProt P21397); assay: Monoamine oxidase inhibition assay (Amplex Red, kynuramine), MAO-A; conditions: read-out: Ki MAO-A; kynuramine substrate, pH 7.4, 37°C
T1 sequence (P21397 1-527): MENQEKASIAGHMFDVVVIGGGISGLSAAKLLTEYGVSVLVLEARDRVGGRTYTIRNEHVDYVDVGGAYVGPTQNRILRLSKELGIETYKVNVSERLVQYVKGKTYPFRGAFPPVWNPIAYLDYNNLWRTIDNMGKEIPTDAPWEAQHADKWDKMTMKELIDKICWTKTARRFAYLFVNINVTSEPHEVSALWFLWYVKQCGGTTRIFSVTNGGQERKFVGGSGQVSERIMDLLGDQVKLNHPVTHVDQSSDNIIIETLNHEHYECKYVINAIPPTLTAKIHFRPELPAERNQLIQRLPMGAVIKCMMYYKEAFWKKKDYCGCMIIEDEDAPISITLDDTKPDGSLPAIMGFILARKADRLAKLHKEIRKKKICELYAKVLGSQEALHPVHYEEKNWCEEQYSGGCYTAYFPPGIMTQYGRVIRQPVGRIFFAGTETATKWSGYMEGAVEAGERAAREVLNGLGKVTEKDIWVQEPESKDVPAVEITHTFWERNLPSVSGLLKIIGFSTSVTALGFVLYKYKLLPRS
Method: (§1) Materials. Human recombinant MAO-A and MAO-B were expressed in baculovirus infected BT1 cells (5 mg/ml) and horseradish peroxidases were purchased from Fluka-Sigma-Aldrich s.r.l. (Italy). A Cary-Eclipse fluorimeter (Varian Inc., Palo Alto, CA, USA) was employed for fluorescence measurements.
(§2) Monoamine oxidase inhibition assay. Monoamine oxidase activity was determined by measuring H2O2 generation rate by a peroxidase-coupled continuous assay, using the Amplex Red reagent as fluorogenic substrate for horseradish peroxidase.1 All experiments were carried out as previously reported,2 in 100 mM potassium phosphate buffer, 0.1 mM EDTA, pH 7.4 and at 37°C. The assays were carried out in a final volume of 800 L, in the presence of Amplex Red (100 M) and horseradish peroxidase type II (5 UmL -1), and using kynuramine (20-1200 M) as common MAO-A and MAO-B substrate. h-MAO-A and h-MAO-B concentration in the assay solutions were 3 and 6 g/ml, respectively. After 5 min of pre-incubation of the enzyme with the compounds, substrate was added and the initial rates of reaction were recorded. The rates of the enzymatic reaction were determined by detecting the increase in the fluorescence intensity at
(§3) The generation rate of H2O2 was calculated from the increase of fluorescence intensity by means of calibration curves obtained using standard solution of H2O, in
M of maxima concentrations tested).
(§4) Steady state kinetic parameters (V max and K m) were calculated by fitting the Michaelis-Menten equation to the experimental data (initial velocity vs substrate concentrations), with Sigma Plot software, version 9.0 (Jandel Scientific, San Rafael, CA, USA). The mode of inhibition was determined by global fit analysis (GraphPad 9.0 software, GraphPad Software, San Diego, CA,
(§5) USA) of the initial velocity (V0) vs substrate concentration plots, at various inhibitor concentrations. The competitive, mixed, non-competitive and uncompetitive inhibition models were analysed and the fit giving the highest r2 value was chosen for the calculation of inhibition
(§6) compounds, experimental data are presented as double reciprocal Lineweaver-Burk plots (1/v vs 1/S). Ki values are expressed as mean ±S.D. All experiments were carried out at least in

human recombinant MAO-B = target: T2, human recombinant MAO-B (Homo sapiens, UniProt P27338); assay: Monoamine oxidase inhibition assay (Amplex Red, kynuramine), MAO-B; conditions: for mode of inhibition: Lineweaver–Burk double-reciprocal plots, MAO-B; for Ki: read-out: Ki MAO-B, kynuramine substrate, pH 7.4, 37°C
T2 sequence (P27338 1-520): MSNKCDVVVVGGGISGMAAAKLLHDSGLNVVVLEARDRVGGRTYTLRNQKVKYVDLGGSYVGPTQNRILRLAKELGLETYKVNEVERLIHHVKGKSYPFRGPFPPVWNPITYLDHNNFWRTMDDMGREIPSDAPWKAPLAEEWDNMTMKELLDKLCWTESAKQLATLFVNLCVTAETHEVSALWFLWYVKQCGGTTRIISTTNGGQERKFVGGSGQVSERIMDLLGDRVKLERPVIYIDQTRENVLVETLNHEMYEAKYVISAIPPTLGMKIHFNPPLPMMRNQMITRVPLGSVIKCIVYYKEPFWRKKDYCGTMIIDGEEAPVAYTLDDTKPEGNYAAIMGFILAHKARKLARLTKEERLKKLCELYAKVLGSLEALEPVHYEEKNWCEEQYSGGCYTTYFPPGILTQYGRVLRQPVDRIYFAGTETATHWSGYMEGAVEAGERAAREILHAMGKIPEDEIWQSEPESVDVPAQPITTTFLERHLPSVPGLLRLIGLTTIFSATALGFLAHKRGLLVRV
Method: as §1, §2, §3
M of maxima concentrations tested).
as §4, §5, §6

[3] = test system: Met-5A (human mesothelial cells); assay: Cell growth assay (trypan blue), Met-5A; format: cell-based; conditions: nontumorigenic Met-5A mesothelial cells
Text: fluorescence measurements.
prepared in dimethylsulfoxide.
performed to determine cell viability.
µM of maxima concentrations tested).
The mode of inhibition was […]

[4] = test system: recombinant MAO-A or MAO-B; assay: Reversibility assay (dialysis/ultrafiltration); format: biochemical, human; conditions: incubated at 4 times the Ki value for 20 min before dialysis
MAO-B = test system: MAO-B; set-up: method as in PMID 26337020, PMID 28577983; conditions: previously tested; ref [19],[23]; cited from earlier work

Compound: O=C(/C=C/c1ccccc1[N+](=O)[O-])c1ccccc1 [Compound 1]
- GI50 [1]: > 20 µM
- GI50 [2]: > 20 µM
- Ki (human recombinant MAO-A): 2.2 µM
- mode of inhibition (human recombinant MAO-B): competitive behavior
- Ki (human recombinant MAO-B): 400 ± 80 nM

Compound: O=C(/C=C/c1cccc([N+](=O)[O-])c1)c1ccccc1 [Compound 2]
- GI50 [1]: 2.8 ± 0.3 µM
- GI50 [2]: 5 ± 1.8 µM
- Ki (human recombinant MAO-A): 2.5 µM
- Ki (human recombinant MAO-B): 71 ± 11 nM

Compound: O=C(/C=C/c1ccc([N+](=O)[O-])cc1)c1ccccc1 [Compound 3]
- GI50 [1]: 7.5 ± 1.3 µM
- GI50 [2]: 15.5 ± 3.9 µM

Compound: O=C(/C=C/c1ccccc1C(F)(F)F)c1ccccc1 [Compound 4]
- GI50 [1]: 7.2 ± 0.3 µM
- GI50 [2]: 11.7 ± 3.6 µM

Compound: O=C(/C=C/c1cccc(C(F)(F)F)c1)c1ccccc1 [Compound 5]
- GI50 [1]: 10 ± 0.4 µM
- GI50 [2]: 12.7 ± 3.2 µM

Compound: O=C(/C=C/c1ccc(C(F)(F)F)cc1)c1ccccc1 [Compound 6]
- GI50 [1]: 14 ± 0.9 µM
- GI50 [2]: 12.2 ± 0.4 µM

Compound: COc1ccccc1/C=C/C(=O)c1ccccc1 [Compound 7]
- GI50 [1]: 13.8 ± 0.3 µM
- GI50 [2]: 13 ± 4 µM

Compound: COc1cccc(/C=C/C(=O)c2ccccc2)c1 [Compound 8]
- GI50 [1]: 13.2 ± 2.2 µM
- GI50 [2]: 14.5 ± 0.7 µM

Compound: COc1ccc(/C=C/C(=O)c2ccccc2)cc1 [Compound 9]
- GI50 [1]: 14.4 ± 3.5 µM
- GI50 [2]: 16.7 ± 2.5 µM

Compound: O=C(/C=C/c1ccccc1)c1ccccc1[N+](=O)[O-] [Compound 10]
- GI50 [1]: 5.8 ± 0.8 µM
- GI50 [2]: 8.3 ± 1.4 µM

Compound: O=C(/C=C/c1ccccc1)c1cccc([N+](=O)[O-])c1 [Compound 11]
- GI50 [1]: 4.3 ± 1.5 µM
- GI50 [2]: 9 ± 0.1 µM

Compound: O=C(/C=C/c1ccccc1)c1ccccc1C(F)(F)F [Compound 12]
- GI50 [1]: 5.8 ± 2.9 µM
- GI50 [2]: 10.8 ± 0.4 µM

Compound: O=C(/C=C/c1ccccc1)c1cccc(C(F)(F)F)c1 [Compound 13]
- GI50 [1]: > 20 µM
- GI50 [2]: > 20 µM
- GI50 [3]: > 20 µM
- MAO activity after dialysis (reversibility) [4]: fully recovered
- Ki (human recombinant MAO-A): 4.6 µM
- mode of inhibition (human recombinant MAO-B): competitive mode of inhibition
- Ki (human recombinant MAO-B): 5 ± 0.5 nM

Compound: O=C(/C=C/c1ccccc1)c1ccc(C(F)(F)F)cc1 [Compound 14]
- Ki (human recombinant MAO-A): 9.2 µM
- mode of inhibition (human recombinant MAO-B): competitive behavior
- Ki (human recombinant MAO-B): 14.6 ± 0.1 nM

Compound: COc1ccccc1C(=O)/C=C/c1ccccc1 [Compound 15]
- GI50 [1]: 7.3 ± 1.1 µM
- GI50 [2]: 14.8 ± 2 µM
- inhibitory potency on MAO-B (MAO-B): lower inhibitory potency than for 17

Compound: COc1cccc(C(=O)/C=C/c2ccccc2)c1 [Compound 16]
- GI50 [1]: 8 ± 0.1 µM
- GI50 [2]: 14.7 ± 2.5 µM
- inhibitory potency on MAO-B (MAO-B): lower inhibitory potency than for 17

Compound: COc1ccc(C(=O)/C=C/c2ccccc2)cc1 [Compound 17]
- GI50 [1]: 6.8 ± 1 µM
- GI50 [2]: 11.7 ± 3.7 µM
- GI50 [3]: ~11.8 µM
- Ki (human recombinant MAO-A): 13 µM
- Ki (human recombinant MAO-B): 22 nM and 21.9 nM

Compound: O=C(/C=C/c1ccccc1)c1ccccc1 [chalcone]
- GI50 [3]: ~7 µM
- Ki (human recombinant MAO-A): 14.6 µM
- mode of inhibition (human recombinant MAO-B): competitive behavior
- Ki (human recombinant MAO-B): 56 ± 6 nM

Compound: C[C@H](NCc1ccc(OCc2cccc(F)c2)cc1)C(N)=O [safinamide, reference compound]
- GI50 [1]: > 20 µM
- GI50 [2]: > 20 µM
- GI50 [3]: > 20 µM
- mode of inhibition (human recombinant MAO-B): standard competitive inhibitor
